Reference: US8367830B2, “Methods for the identification of phosphatidylinositol kinase interacting molecules and for the purification of phosphatidylinositol kinase proteins” (Cellzome AG, priority 2009, dated 2013)

Legend:
NEK2 = NEK2 (Homo sapiens, UniProt P51955); assay: Kinobeads competition binding, immobilized CZC31207, HeLa/placenta lysate mix; design: endogenous in cells; host or cells: mix of HeLa cell lysate and placenta lysate; conditions: 10 μM free compound; mixed HeLa and placenta cell lysates
Description: (§1) To the first aliquot of cell lysate 10 μM of the free compound (CZC31207) was added and allowed to bind to proteins in the lysate. Then the affinity matrix with the immobilized compound (Example 1) was added to capture proteins that were not interacting with the previously added free compound. Beads were separated from the lysate and bead bound proteins were eluted in SDS sample buffer and subsequently separated by SDS-Polyacrylamide gel electrophoresis (FIG. 4). Suitable gel bands were cut out and subjected to in-gel proteolytic digestion with trypsin. The second lysate aliquot was processed identically, however no free compound was added (DMSO solvent control). Peptides originating from samples 1 and 2 were labeled with iTRAQ reagents (iTRAQ 115 and iTRAQ 117) and the combined samples were analyzed with a nano-flow liquid chromatography system coupled online to a tandem mass spectrometer (LC-MS/MS) experiment followed by iTRAQ reporter ion quantification in the MS/MS spectra (Ross et al., 2004. Mol. Cell. Proteomics 3(12):1154-1169). Further experimental protocols can be found in WO2006/134056 and a previous publication (Bantscheff et al., 2007. Nature Biotechnology 25, 1035-1044).
(§2) Cells were homogenized in a Potter S homogenizer in lysis buffer: 50 mM Tris-HCl, 0.8% NP40, 5% glycerol, 150 mM NaCl, 1.5 mM MgCl2, 25 mM NaF, 1 mM sodium vanadate, 1 mM DTT, pH 7.5. One complete EDTA-free tablet (protease inhibitor cocktail, Roche Diagnostics, 1 873 580) per 25 ml buffer was added. The material was dounced 20 times using a mechanized POTTER S, transferred to 50 ml falcon tubes, incubated for 30 minutes rotating at 4° C. and spun down for 10 minutes at 20,000×g at 4° C. (10,000 rpm in Sorvall SLA600, precooled). The supernatant was transferred to an ultracentrifuge (UZ)-polycarbonate tube (Beckmann, 355654) and spun for 1 hour at 145.000×g at 4° C. (40.000 rpm in Ti50.2, precooled). The supernatant was transferred again to a fresh 50 ml falcon tube, the protein concentration was determined by a Bradford assay (BioRad) and samples containing 50 mg of protein per aliquot were prepared. The samples were immediately used for experiments or frozen in liquid nitrogen and stored frozen at −80° C.
(§3) Sepharose-beads with the immobilized compound (100 μl beads per pull-down experiment) were equilibrated in lysis buffer and incubated with a cell lysate sample containing 50 mg of protein on an end-over-end shaker (Roto Shake Genie, Scientific Industries Inc.) for 2 hours at 4° C. Beads were collected, transferred to Mobicol-columns (MoBiTech 10055) and washed with 10 ml lysis buffer containing 0.4% NP40 detergent, followed by 5 ml lysis buffer containing 0.2% detergent. To elute bound proteins, 60 μl 2×SDS sample buffer was added to the column. […]

PIK3Cb = PIK3Cb (Homo sapiens, UniProt P42338); assay: as above; design: endogenous in cells; host or cells: mix of HeLa cell lysate and placenta lysate; conditions: 10 μM free compound; mixed HeLa and placenta cell lysates
Description: as §1, §2, §3

PIP5K2C = PIP5K2C (Homo sapiens, UniProt Q8TBX8); assay: as above; design: endogenous in cells; host or cells: mix of HeLa cell lysate and placenta lysate; conditions: 10 μM free compound; mixed HeLa and placenta cell lysates
Description: as §1, §2, §3

PIK3Cg = PIK3Cg (Homo sapiens, UniProt P48736); assay: as above; design: endogenous in cells; host or cells: mix of HeLa cell lysate and placenta lysate; conditions: 10 μM free compound; mixed HeLa and placenta cell lysates
Description: as §1, §2, §3

PIK3C3 = biological target: T1, PIK3C3 (Homo sapiens, UniProt Q8NEB9); assay: Kinobeads competition binding, immobilized CZC31207, Jurkat/Ramos lysate mix; conditions: 10 μM free compound; mix of Jurkat and Ramos cell lysates
T1 construct: endogenous in cells; host or cells: mixed lysate of Jurkat and Ramos cells
Description: (§4) To the first aliquot of cell lysate 10 μM of the free compound CZC31207 was added and allowed to bind to proteins in the lysate. Then the affinity matrix with the immobilized compound was added to capture proteins that were not interacting with the previously added free compound. Beads were separated from the lysate and bead bound proteins were eluted in SDS sample buffer and subsequently separated by SDS-Polyacrylamide gel electrophoresis (FIG. 5). Suitable gel bands were cut out and subjected to in-gel proteolytic digestion with trypsin. The second lysate aliquot was processed identically, however no free compound was added (DMSO solvent control). Peptides originating from samples 1 and 2 were labeled with iTRAQ reagents (iTRAQ 114 and iTRAQ 116) and the combined samples were analyzed with a nano-flow liquid chromatography system coupled online to a tandem mass spectrometer (LC-MS/MS) experiment followed by iTRAQ reporter ion quantification in the MS/MS spectra as described in Example 2.
(§5) Jurkat cells (ATCC number T1B-152) and Ramos cells (ATCC number CRL-1596) were either obtained from an external supplier (CIL SA, Mons, Belgium) or grown in one litre Spinner flasks (Integra Biosciences, #182101) in suspension in RPMI 1640 medium (Invitrogen, #21875-034) supplemented with 10% Fetal Bovine Serum (Invitrogen, #10270-106) at a density between 0.2×10^6 and 1.0×10^6 cells/ml. Cells were harvested by centrifugation, washed once with 1×PBS buffer (Invitrogen, #14190-094) and cell pellets were frozen in liquid nitrogen and subsequently stored at −80° C.
(§6) The identified kinases are shown in Table 5 including the percent competition values for the sample to which 10 μM free compound had been added. In total of 20 different kinases were identified and competed by different degrees.

CDK6 = biological target: T2, CDK6 (Homo sapiens, UniProt Q00534); assay: as above; conditions: 10 μM free compound; mix of Jurkat and Ramos cell lysates
T2 construct: endogenous in cells; host or cells: mixed lysate of Jurkat and Ramos cells
Description: as §4, §5, §6

PIK4C2B = biological target: T3, PIK4C2B (Homo sapiens, UniProt Q8TCG2); assay: as above; conditions: 10 μM free compound; mix of Jurkat and Ramos cell lysates
T3 construct: endogenous in cells; host or cells: mixed lysate of Jurkat and Ramos cells
Description: as §4, §5, §6

CaMK2d = biological target: T4, CaMK2d (Homo sapiens, UniProt Q13557); assay: as above; conditions: 10 μM free compound; mix of Jurkat and Ramos cell lysates
T4 construct: endogenous in cells; host or cells: mix of Jurkat and Ramos cell lysates
Description: as §4, §5, §6

PIP5K2A = biological target: T5, PIP5K2A (Homo sapiens, UniProt P48426); assay: as above; conditions: 10 μM free compound; mix of Jurkat and Ramos cell lysates
T5 construct: endogenous in cells
Description: as §4, §5, §6

MST1 = biological target: T6, MST1 (Homo sapiens, UniProt Q13043); assay: as above; conditions: 10 μM free compound; mix of Jurkat and Ramos cell lysates
T6 construct: endogenous in cells; host or cells: mixed lysate of Jurkat and Ramos cells
Description: as §4, §5, §6

PKD2 = biological target: T7, PKD2 (Homo sapiens, UniProt Q9BZL6); assay: as above; conditions: 10 μM free compound; mix of Jurkat and Ramos cell lysates
T7 construct: endogenous in cells; host or cells: mixed lysate of Jurkat and Ramos cells
Description: as §4, §5, §6

BIKE = biological target: T8, BIKE (Homo sapiens, UniProt Q9NSY1); assay: as above; conditions: 10 μM free compound; mix of Jurkat and Ramos cell lysates
T8 construct: endogenous in cells; host or cells: mix of Jurkat and Ramos cell lysates
Description: as §4, §5, §6

CDC2 = biological target: T9, CDC2 (Homo sapiens, UniProt P06493); assay: as above; conditions: 10 μM free compound; mix of Jurkat and Ramos cell lysates
T9 construct: endogenous in cells; host or cells: mixed lysate of Jurkat and Ramos cells
Description: as §4, §5, §6

PIK4Ca [1] = biological target: T10, PIK4Ca (Homo sapiens, UniProt P42356); assay: as above; design: capturing and identification of kinases from amix of Jurkat and Ramos cell lysates; endogenous in cells; host or cells: mix of Jurkat and Ramos cell lysates; conditions: 10 μM free compound; mix of Jurkat and Ramos cell lysates
Description: as §4
as §5, with “Cells were harvested by centrifugation, washed once with 1×PBS buffer (Invitrogen, #14190-094) and cell pellets were frozen in liquid nitrogen and subsequently stored at −80° C.” left out

CaMK2g [2] = biological target: T11, CaMK2g (Homo sapiens, UniProt Q13555); assay: as above; design: capturing and identification of kinases from amix of Jurkat and Ramos cell lysates; endogenous in cells; host or cells: mix of Jurkat and Ramos cell lysates; conditions: 10 μM free compound; mix of Jurkat and Ramos cell lysates
Description: as §4
as §5, with “Cells were harvested by centrifugation, washed once with 1×PBS buffer (Invitrogen, #14190-094) and cell pellets were frozen in liquid nitrogen and subsequently stored at −80° C.” left out

MAP3K1 = MAP3K1 (Homo sapiens, UniProt Q13233); assay: Kinobeads competition binding, immobilized CZC31207, HeLa/placenta lysate mix; design: endogenous in cells; conditions: 10 μM free compound; mixed HeLa and placenta cell lysates
Description: as §1, §2, §3

PIK4Ca [3] = biological target: T10, PIK4Ca; assay: as above; design: endogenous in cells; conditions: 10 μM free compound; mixed HeLa and placenta cell lysates
Description: as §1, §2, §3

BCKDK = BCKDK (Homo sapiens, UniProt O14874); assay: as above; design: endogenous in cells; conditions: 10 μM free compound; mixed HeLa and placenta cell lysates
Description: as §1, §2, §3

CaMK2g [4] = biological target: T11, CaMK2g; assay: as above; design: endogenous in cells; conditions: 10 μM free compound; mixed HeLa and placenta cell lysates
Description: as §1, §2, §3

T11 sequence (Q13555 whole entry): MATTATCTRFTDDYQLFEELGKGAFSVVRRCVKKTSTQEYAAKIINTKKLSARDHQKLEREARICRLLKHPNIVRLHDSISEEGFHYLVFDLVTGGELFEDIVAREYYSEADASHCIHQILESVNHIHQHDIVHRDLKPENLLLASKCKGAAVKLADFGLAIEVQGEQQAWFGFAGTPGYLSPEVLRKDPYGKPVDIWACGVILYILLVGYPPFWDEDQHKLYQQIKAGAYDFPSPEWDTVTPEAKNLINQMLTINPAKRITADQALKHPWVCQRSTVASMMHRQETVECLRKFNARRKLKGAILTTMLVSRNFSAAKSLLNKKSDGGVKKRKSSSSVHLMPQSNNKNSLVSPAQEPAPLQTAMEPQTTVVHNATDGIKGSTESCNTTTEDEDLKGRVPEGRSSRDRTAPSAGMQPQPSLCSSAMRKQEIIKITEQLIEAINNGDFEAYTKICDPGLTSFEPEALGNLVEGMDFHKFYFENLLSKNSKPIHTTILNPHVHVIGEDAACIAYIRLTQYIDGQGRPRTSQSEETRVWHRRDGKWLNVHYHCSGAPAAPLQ
T10 sequence (P42356 whole entry): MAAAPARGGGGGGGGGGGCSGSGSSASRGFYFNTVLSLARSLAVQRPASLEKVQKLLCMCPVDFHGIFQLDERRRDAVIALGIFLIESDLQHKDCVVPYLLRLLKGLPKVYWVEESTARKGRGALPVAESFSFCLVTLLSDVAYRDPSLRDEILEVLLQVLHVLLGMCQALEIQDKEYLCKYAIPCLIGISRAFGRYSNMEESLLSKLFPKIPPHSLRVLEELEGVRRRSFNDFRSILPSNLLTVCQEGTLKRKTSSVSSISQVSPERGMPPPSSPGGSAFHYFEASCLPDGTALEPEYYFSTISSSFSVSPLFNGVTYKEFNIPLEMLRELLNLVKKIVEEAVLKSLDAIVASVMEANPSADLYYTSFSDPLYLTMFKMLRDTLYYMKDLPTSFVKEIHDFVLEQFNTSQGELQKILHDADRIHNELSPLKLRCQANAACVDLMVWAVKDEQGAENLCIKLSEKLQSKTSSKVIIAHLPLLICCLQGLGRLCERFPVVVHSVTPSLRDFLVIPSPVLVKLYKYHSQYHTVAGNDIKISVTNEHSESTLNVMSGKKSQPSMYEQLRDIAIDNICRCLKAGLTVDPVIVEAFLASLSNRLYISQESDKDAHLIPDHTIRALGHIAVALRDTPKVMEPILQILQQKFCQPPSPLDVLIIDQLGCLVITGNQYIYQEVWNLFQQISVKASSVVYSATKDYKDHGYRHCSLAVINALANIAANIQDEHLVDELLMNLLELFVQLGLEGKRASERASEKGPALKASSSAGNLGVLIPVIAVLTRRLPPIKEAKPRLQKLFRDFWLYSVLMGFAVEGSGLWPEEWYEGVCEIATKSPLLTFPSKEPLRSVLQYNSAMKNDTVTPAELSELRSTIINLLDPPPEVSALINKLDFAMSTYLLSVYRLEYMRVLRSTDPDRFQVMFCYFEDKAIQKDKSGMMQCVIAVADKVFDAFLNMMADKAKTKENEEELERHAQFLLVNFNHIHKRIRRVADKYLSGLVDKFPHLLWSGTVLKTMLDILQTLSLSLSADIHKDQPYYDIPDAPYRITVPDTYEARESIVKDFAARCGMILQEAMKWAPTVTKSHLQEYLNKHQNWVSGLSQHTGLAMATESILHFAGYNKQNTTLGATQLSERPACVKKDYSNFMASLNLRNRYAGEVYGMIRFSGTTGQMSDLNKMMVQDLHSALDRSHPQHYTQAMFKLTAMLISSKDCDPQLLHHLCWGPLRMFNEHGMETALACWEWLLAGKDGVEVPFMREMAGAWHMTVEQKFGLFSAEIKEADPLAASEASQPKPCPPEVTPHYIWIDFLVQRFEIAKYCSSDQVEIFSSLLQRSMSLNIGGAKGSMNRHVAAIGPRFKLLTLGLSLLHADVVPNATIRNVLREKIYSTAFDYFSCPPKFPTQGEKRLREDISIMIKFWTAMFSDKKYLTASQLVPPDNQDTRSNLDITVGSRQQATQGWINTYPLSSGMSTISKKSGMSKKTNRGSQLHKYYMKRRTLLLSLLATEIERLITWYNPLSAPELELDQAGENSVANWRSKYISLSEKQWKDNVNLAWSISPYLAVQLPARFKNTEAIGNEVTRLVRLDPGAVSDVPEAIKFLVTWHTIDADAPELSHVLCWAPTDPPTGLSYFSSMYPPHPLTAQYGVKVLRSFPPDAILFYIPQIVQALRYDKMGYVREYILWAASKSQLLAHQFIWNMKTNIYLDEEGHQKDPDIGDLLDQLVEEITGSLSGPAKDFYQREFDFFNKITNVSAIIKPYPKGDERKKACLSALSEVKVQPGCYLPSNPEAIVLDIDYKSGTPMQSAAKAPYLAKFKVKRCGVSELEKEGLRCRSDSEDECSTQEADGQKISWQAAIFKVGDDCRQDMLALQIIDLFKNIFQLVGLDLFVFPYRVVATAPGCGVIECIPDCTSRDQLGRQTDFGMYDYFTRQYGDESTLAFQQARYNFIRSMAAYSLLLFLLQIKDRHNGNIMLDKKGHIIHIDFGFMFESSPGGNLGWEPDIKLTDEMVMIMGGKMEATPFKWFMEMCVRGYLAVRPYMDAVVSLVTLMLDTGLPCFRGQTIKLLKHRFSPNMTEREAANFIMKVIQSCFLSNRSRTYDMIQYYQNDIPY
T3 sequence (Q8TCG2 whole entry): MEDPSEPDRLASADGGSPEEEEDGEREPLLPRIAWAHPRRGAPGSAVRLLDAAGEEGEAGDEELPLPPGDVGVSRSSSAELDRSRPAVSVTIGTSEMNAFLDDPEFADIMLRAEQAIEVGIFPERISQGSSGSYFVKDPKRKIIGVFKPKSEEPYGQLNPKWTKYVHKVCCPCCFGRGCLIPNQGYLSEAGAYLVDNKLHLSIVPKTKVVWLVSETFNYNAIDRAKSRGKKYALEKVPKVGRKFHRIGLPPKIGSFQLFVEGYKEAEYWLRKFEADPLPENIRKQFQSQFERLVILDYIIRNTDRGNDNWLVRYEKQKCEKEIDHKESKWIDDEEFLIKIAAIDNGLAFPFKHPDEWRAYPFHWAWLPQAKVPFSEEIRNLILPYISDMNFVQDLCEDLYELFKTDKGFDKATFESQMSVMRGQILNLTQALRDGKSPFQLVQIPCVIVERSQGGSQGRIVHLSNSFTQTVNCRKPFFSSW
Chain of PIK3Cg (P48736 whole entry): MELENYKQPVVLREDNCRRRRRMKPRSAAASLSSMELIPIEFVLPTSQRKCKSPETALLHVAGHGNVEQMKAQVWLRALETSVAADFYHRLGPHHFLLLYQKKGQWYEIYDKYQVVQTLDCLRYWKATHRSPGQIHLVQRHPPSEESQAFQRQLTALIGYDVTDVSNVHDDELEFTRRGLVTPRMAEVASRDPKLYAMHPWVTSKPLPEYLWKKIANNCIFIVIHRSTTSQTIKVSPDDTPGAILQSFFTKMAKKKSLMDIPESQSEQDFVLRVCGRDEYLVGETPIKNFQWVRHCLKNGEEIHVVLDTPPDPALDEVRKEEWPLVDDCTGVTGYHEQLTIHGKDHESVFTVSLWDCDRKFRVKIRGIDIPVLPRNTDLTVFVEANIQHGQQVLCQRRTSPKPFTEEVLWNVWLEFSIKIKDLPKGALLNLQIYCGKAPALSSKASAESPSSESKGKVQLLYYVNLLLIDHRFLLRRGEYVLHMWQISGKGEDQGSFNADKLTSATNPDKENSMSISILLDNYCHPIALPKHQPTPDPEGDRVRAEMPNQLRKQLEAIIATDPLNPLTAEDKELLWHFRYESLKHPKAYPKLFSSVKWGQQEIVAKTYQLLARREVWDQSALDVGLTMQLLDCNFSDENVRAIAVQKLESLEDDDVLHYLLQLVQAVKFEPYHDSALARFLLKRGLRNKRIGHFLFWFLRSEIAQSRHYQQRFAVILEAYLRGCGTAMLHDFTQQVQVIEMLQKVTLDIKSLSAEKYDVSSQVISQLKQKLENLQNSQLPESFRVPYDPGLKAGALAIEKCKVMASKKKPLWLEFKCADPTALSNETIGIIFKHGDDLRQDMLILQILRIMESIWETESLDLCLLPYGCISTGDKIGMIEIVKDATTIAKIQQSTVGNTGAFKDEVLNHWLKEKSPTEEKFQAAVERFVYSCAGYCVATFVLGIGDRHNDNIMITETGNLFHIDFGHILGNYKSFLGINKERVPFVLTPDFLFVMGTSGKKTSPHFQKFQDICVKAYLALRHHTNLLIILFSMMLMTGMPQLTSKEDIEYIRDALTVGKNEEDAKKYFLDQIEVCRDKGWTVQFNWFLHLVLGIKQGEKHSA
Chain of PIP5K2C (Q8TBX8 whole entry): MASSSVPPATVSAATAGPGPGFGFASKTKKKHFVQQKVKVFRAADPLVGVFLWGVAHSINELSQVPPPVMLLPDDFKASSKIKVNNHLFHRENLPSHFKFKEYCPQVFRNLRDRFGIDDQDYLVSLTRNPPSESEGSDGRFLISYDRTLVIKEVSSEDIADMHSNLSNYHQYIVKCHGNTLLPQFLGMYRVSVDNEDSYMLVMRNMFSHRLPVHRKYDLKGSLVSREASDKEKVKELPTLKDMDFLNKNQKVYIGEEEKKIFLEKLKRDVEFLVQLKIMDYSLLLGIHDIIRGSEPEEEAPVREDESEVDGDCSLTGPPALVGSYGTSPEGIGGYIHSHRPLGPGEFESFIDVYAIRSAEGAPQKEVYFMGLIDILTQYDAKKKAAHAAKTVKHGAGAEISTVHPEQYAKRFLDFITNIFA
T5 sequence (P48426 whole entry): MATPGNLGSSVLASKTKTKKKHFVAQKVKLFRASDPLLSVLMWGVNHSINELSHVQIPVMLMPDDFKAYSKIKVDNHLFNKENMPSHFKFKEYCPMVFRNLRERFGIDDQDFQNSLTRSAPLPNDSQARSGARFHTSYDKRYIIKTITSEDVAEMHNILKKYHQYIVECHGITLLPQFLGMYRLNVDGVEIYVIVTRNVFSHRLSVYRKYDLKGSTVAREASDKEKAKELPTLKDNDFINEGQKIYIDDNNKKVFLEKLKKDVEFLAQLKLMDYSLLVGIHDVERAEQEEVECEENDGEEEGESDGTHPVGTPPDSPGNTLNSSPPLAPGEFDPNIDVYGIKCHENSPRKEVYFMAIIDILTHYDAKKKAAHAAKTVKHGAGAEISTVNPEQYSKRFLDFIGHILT

CC(C)NS(=O)(=O)c1cncc(-c2ccc3nc(NC(=O)NCCN)nn3c2)c1 [CZC31207, 5-(2-(3-(2-aminoethyl)ureido)-[1,2,4]triazolo[1,5-a]pyridin-6-yl)-N-isopropylpyridine-3-sulfonamide]
Competition % NEK2 (NEK2): 40.4% | Competition % PIK3Cb (PIK3Cb): 85.6% | Competition % PIP5K2C (PIP5K2C): 78.3% | Competition % PIK3Cg (PIK3Cg): 80% | Competition % PIK3C3 (PIK3C3): 52.4% | Competition % CDK6 (CDK6): −1.6% | Competition % PIK4C2B (PIK4C2B): 20.3% | Competition % CaMK2d (CaMK2d): −1.3% | Competition % PIP5K2A (PIP5K2A): 68.5% | Competition % MST1 (MST1): 24.5% | Competition % PKD2 (PKD2): 37.9% | Competition % BIKE (BIKE): 26.1% | Competition % CDC2 (CDC2): 34.1% | Competition % PIK4Ca (PIK4Ca [1]): 28.5% | Competition % CaMK2g (CaMK2g [2]): −3.1% | Competition % MAP3K1 (MAP3K1): 13.3% | Competition % PIK4Ca (PIK4Ca [3]): 39.9% | Competition % BCKDK (BCKDK): 8% | Competition % CaMK2g (CaMK2g [4]): 15.2%
